Where “and” joins values, the source holds several entries; their conditions need not be identical. Equal values may be shown once. Calls of active or inactive are those of the source. The rule behind the calls is not given here.
Each compound was assayed on INS-1E Gaussia luciferase insulin secretion, no glucose, luminescence (assay: glucose-independent GLuc insulin release activation – cell-based, INS-1E, Gaussia luciferase, luminescence, cherry-pick, counter-screen for glucose-dependent insulin secretion activators, dose response (AID 977606)).

SMILES | AC40
CC(C)CC#Cc1ccc([C@H]2[C@H]3CN(C(=O)c4cnccn4)CC(=O)N3[C@H]2CO)cc1 | > 35 µM (inactive)
COC(=O)C1=C(C)N(Cc2ccc(C(F)(F)F)cc2)C(=NCC2CC2)NC1c1ccccc1 (configuration not stated) | 9.63 µM
O=c1c2ccccc2sn1-c1ccc(F)cc1 | 2.43 µM
O=C(CC1c2ccccc2Oc2ccccc21)Nc1ccccc1C(F)(F)F | 5.33 µM
Fc1ccc(/C=N/c2c(-c3ccc(F)cc3)nc3n2CCS3)cc1 | 6.12 µM
COc1ccccc1NC(=O)N1CCCCN2[C@@H](CO)[C@@H](c3ccc(C#CC4CCCC4)cc3)[C@@H]2C1 | 9.17 µM
COc1cccc(-c2cc(C(=O)Nc3cc(C)on3)no2)c1 | 10.7 µM
Cc1ccc(-c2ccc(C3[C@@H]4CN(C(=O)Nc5ccc(C(F)(F)F)cc5)C[C@H]3N4)cc2)cc1 (some centres not stated) | 1.17 µM and 2.2 µM
CCC(=O)Nc1sc(Cc2ccc3c(c2)OCO3)c(C)c1C(N)=O | 7.01 µM
CCOC(=O)c1c(NC(=O)Cn2nc(C(F)(F)F)cc2C)sc(C)c1C | 5.96 µM
CCCCc1c(-c2ccc(F)cc2F)ncn1CCc1ccccc1OC | 5.38 µM
NC(N)=N/N=C/c1ccc(OCc2ccccc2)c(OCc2ccccc2)c1 | 6.87 µM
CC(C)(C)c1ccccc1OCC(O)CN1CCN(c2ccccn2)CC1 (configuration not stated) | 13 µM
Cc1cc(OCCCN2CCC(C(O)(c3ccccc3)c3ccccc3)CC2)ccc1Br | 3.84 µM
C[C@@H](NC(=O)C[C@@H]1C[C@@H]2c3cc(NC(=O)Nc4ccccc4F)ccc3O[C@@H]2[C@@H](CO)O1)c1ccccc1 | 34.3 µM
COc1ccc(C(CCNCc2ccc(OC(C)C)cc2)C(C)C)cc1 (configuration not stated) | 12.3 µM
CCOC(=O)c1ccc(Nc2ncnc3ccc(C)cc23)cc1 | 11.5 µM
Cc1cc(C)cc(OCCCN2CCC(C(O)(c3ccccc3)c3ccccc3)CC2)c1 | 6.87 µM
NS(=O)(=O)c1ccc(N=Cc2c(O)n(C3CCCCC3)c(=O)n(C3CCCCC3)c2=O)cc1 | 15.1 µM
Fc1ccccc1/C=N/n1c(C2CCCCC2)n[nH]c1=S | 11.8 µM
Cc1ccc2sc(-c3ccc(NC(=O)c4cc(-n5cnnc5)ccc4Cl)cc3)nc2c1 | 8.4 µM
O=C(NN=Cc1ccccc1Cl)c1cccc2ccccc12 | 7.18 µM

SMILES | AC40
Cc1ccc(/C=N/NC(=O)COc2ccccc2-c2ccccc2)cc1 | 4.99 µM
CC(C)C[C@H](NC(=O)c1nc[nH]c1C(=O)NC1CCN(C(=O)OC(C)(C)C)CC1)C(=O)OC(C)(C)C | 26.4 µM
Cc1ccccc1-c1ccc(C2[C@@H]3CN(S(=O)(=O)c4ccccc4C)C[C@H]2N3)cc1 (some centres not stated) | 5.8 µM
CN(C)C=NC(=O)c1ccc(N2CCN(c3ncc(C(F)(F)F)cc3Cl)CC2)cc1 | 5.6 µM
CC(C)(C)S(=O)N1Cc2cc(C(=O)Nc3ccc(-c4ccccc4)cc3)nc(-c3cccc(-c4cccc(F)c4)c3)c2[C@@H]1CCO (some centres not stated) | 13.4 µM
O=c1c2ccc(Cl)cc2[nH]c(=S)n1CCC1=CCCCC1 | 2.15 µM
O=c1[nH][nH]c2c1C(c1ccc(Cl)c(Cl)c1)OC(CCc1ccccc1)C2 (configuration not stated) | 19.2 µM
COc1cc(CNCCc2ccccc2)cc(Cl)c1OCc1ccccc1 | 7.96 µM
CCN(CC)c1ccc(N=Cc2c(O)n(Cc3ccccc3)c(=O)[nH]c2=O)cc1 | 7.08 µM
O=C(Nc1cccc(Cl)c1)Nc1nc(-c2ccc(Cl)cc2)cs1 | > 35 µM (inactive)
O=C(OCC12CC3CC(CC(C3)C1)C2)c1ccc(NCc2cc(O)ccc2O)cc1 | 9.2 µM
COc1ccccc1CCn1cnc(-c2cccc(F)c2)c1CC(C)C | 8.26 µM
O=C(Nc1nnc(-c2ccc(F)cc2)s1)C1CCN(S(=O)(=O)c2ccc(Cl)cc2)CC1 | 5.13 µM
Cc1nnn(-c2nonc2N)c1C(=O)N/N=C/c1cccc2ccccc12 | 6.5 µM
Cc1cc2c(cc1C)CSC(c1c(O)ccc3ccccc13)SC2 | 17.9 µM
CC(C)C[C@H](NC(=O)c1[nH]cnc1C(=O)N[C@@H](C)c1ccccc1)C(=O)OC(C)(C)C | 20 µM
N#Cc1ccc(-c2ccc([C@@H]3[C@H]4CNC[C@@H]3N4Cc3cc(F)ccc3F)cc2)cc1 | 12.8 µM
Cc1ncc(N=Nc2ccc(F)cc2)c(-c2ccc(Cl)cc2)n1 | 8.66 µM
OC(CNCCC1C=Nc2ccccc21)Cn1c2ccc(Cl)cc2c2cc(Cl)ccc21 (configuration not stated) | 9.56 µM
N#Cc1cccc(-c2ccc([C@@H]3[C@@H]4CN(S(=O)(=O)c5ccc(-c6ccccc6)cc5)C[C@H]3N4)cc2)c1 | 1.89 µM
COc1ccc(CC2c3cc(OC)c(OC)cc3CCN2C)cc1O (configuration not stated) | 14.7 µM
CC(=O)N(C1CC(C)C(C#N)(C#N)C1(C#N)C#N)N(C)C (configuration not stated) | 0.795 µM

SMILES | AC40
Cc1ccc(NC(=O)c2oc3ccc(S(=O)(=O)N4CCOCC4)cc3c2C)cc1C | 7.57 µM
CC1(Cc2ccc(C(F)(F)F)o2)C(=O)Nc2ccc(-c3cccc(C(F)(F)F)c3)cc21 (configuration not stated) | 5.92 µM
O=c1c2ccc(F)cc2sn1-c1ccccc1 | 1.45 µM
CCOC(=O)Cn1c(=NC(=O)c2nc3ccccc3s2)sc2cc(S(N)(=O)=O)ccc21 | 18.3 µM
O=C(Nc1ccc2c(c1)OCO2)N1C[C@@H]2N[C@H](C1)C2c1ccc(C=Cc2ccccc2)cc1 (some centres not stated) | 11.7 µM
COc1ccccc1CCn1cnc(-c2cccc(F)c2)c1C(C)C | 11.6 µM
CC(=O)Nc1ccc(Nc2nc(-c3c(C)nc4ccccn34)cs2)cc1 | 4.46 µM
CCOc1ccc(/C=N/NC(=O)c2cc(-c3ccco3)nc3ccccc23)cc1 | 6.73 µM
NC(N)=N/N=C/c1ccc(OCc2ccccc2Cl)cc1 | 12.3 µM
Cc1[nH]c2ccc(OC(F)(F)F)cc2c1CCNCc1ccc(Cl)cc1 | 5.89 µM
COc1ccc(C(=O)NC(=S)Nc2ccc3c4c(cccc24)CC3)cc1OC | 6.85 µM
N/C(=N\OC(=O)COc1ccc(Cl)cc1Cl)c1cccnc1 | 19.3 µM
COc1cc(CN2C[C@@H]3N[C@H](C2)C3c2ccc(/C=C/c3ccccc3)cc2)cc(OC)c1 (some centres not stated) | 1.76 µM
Cc1ccc(NC(=O)c2cc(-c3ccccc3O)n[nH]2)cc1C | > 35 µM (inactive)
CCOC(=O)c1cc2sccc2n1CC(=O)N1c2ccccc2CC1C (configuration not stated) | 5.99 µM
Cc1ccc2c(Cl)c(C)c(N3CCCCC3)nc2n1 | 9.65 µM
COc1ccc(-c2cc3ccccc3oc2=O)cc1NC(=S)NC(=O)c1ccc2c(c1)OCCO2 | 1.2 µM
COc1cc(CN2CCc3ccccc3C2)ccc1O | 13.6 µM
COc1ccc(N2CCN(c3ccc(NC(=O)C4CCCCC4)cc3C#N)CC2)cc1 | 3.22 µM
COc1ccccc1C(=O)NC(=S)NC12CC3CC(CC(C3)C1)C2 | 7.67 µM
O=c1c2ccccc2nc(-c2ccco2)n1/N=C/c1ccccc1O | 11.7 µM
CCN(Cc1ccccc1)S(=O)(=O)c1ccc(C(=O)Nc2nnc(C)o2)cc1 | 0.0558 µM

SMILES | AC40
Cc1ccc(C(OCC(O)CNCc2ccc(F)cc2)c2ccccc2)cc1 (configuration not stated) | 8.22 µM
O=C(Nc1ccc(SC(F)F)cc1)c1cccc2nc3ccccc3nc12 | 10.2 µM
Cc1cc(Cl)ccc1Oc1nc(-c2ccccc2)ncc1S(C)(=O)=O | 3.04 µM
O=C(CCN1CCOCC1)c1ccccc1 | 10.3 µM
COc1ccc(-c2ccc(C3[C@@H]4CN(Cc5cccc(OC)c5)C[C@H]3N4)cc2)cc1 (some centres not stated) | 6.42 µM
Nc1c(C(=O)Nc2ccc3c(c2)OCCO3)nnn1Cc1ccc(Cl)cc1 | 10.1 µM
Cc1ccccc1-n1sc2cc(F)ccc2c1=O | 0.539 µM
O=C1N/C(=N\N=C\c2cccs2)SC1Cc1cccc(Cl)c1 (configuration not stated) | 5.93 µM
Cc1ccc(CC2(OCCN(C)C)CCC(C(C)(C)C)CC2)cc1 (configuration not stated) | 5.45 µM
N#Cc1sc2nc(N3CCCCC3)c3c(c2c1N)CCCC3 | 21.2 µM
Cc1ccc(C)c(OCC(=O)Nc2nonc2NC(=O)COc2cc(C)ccc2C)c1 | 3.38 µM
O=C(Nc1nnc(-c2ccccc2SCc2ccccc2F)s1)Nc1ccccc1F | 12.8 µM
COc1ccc2nc3ccccc3nc2c1NC(=O)c1ccc(Cl)cc1Cl | 5.1 µM
Clc1ccc(/C=N/NC2=Nc3cccc4cccc2c34)cc1 | 2.88 µM
Cc1cccc(Cn2ccc(-c3ccc(Cl)cc3)c(C#N)c2=O)c1 | 3.46 µM
N#Cc1cccc(-c2ccc(C3[C@H]4CNC[C@@H]3N4Cc3cc(-c4ccccc4)on3)cc2)c1 (some centres not stated) | 9.78 µM
COc1ccc(C#Cc2ccc([C@@H]3[C@H](CO)N4CCCCN(Cc5ccccc5F)C[C@@H]34)cc2)cc1 | 9.33 µM
Cc1cccc(S(=O)(=O)N2C[C@@H]3N[C@H](C2)C3c2ccc(-c3ccccc3F)cc2)c1 (some centres not stated) | 2.91 µM
COc1ccc(Br)cc1C(=O)Nc1cccc(C)c1 | 9.88 µM
CCCCCc1cc(=O)oc2c(C(CCN3CCCC(C)C3)c3ccc(OC)cc3)c(OC)cc(OC)c12 (configuration not stated) | 8.58 µM
Cc1ccc(C)c(OCC(=O)N/N=C/c2c(C)nn(-c3ccccc3)c2Cl)c1C | 1.63 µM
COc1ccc(C(C)NCCC(c2ccc(OC(C)C)cc2)c2ccccc2OC)cc1 (configuration not stated) | 4.99 µM

SMILES | AC40
CC1(Cc2cc(Cl)ccc2C(F)(F)F)C(=O)Nc2cc(C(F)(F)F)ccc21 (configuration not stated) | 12.4 µM
CC1CCN(S(=O)(=O)c2ccc(C(=O)OCc3ccc4c(c3)OCO4)cc2)CC1 | 11.4 µM
O=C(c1ccc(F)cc1)N1C[C@@H]2N[C@H](C1)C2c1ccc(/C=C/c2ccccc2)cc1 (some centres not stated) | > 11 µM (inactive)
Cc1nn(Cc2ccc(Cl)cc2Cl)c(Cl)c1C(=O)Nc1ccc(OC(F)F)cc1 | 5.64 µM
CC(C)Sc1nc2c(c(=O)[nH]c(=O)n2C)n1Cc1ccc(Cl)cc1 | 14 µM
COc1ccc(-c2cccc(C(=O)Nc3ccc(C)cc3)c2)cc1 | 13.6 µM
Fc1cccc(CN2C[C@@H]3N[C@H](C2)C3c2ccc(/C=C/c3ccccc3)cc2)c1 (some centres not stated) | 6.41 µM
Cc1cc(C)c2c(C)nn(C3CCCCC3)c2n1 | > 35 µM (inactive)
COc1ccc(/C=N/N(C(C)=O)c2nc(-c3ccc(C)cc3)cs2)cc1 | 1.98 µM
FC(F)(F)c1cc(CCN2CCNC[C@@H]2CC2CCCCC2)cc(C(F)(F)F)c1 | 4.05 µM
CS(=O)(=O)c1ccc2nc(NC(=O)Nc3ccc(Cl)c(Cl)c3)sc2c1 | 1.92 µM
Fc1cccc(-c2ccc(C3[C@@H]4CN(Cc5ccccc5F)C[C@H]3N4)cc2)c1 (some centres not stated) | 6.11 µM
CCOC(=O)Nc1cccc(OCC(=O)Nc2ccc3c(c2)CCC3)c1 | 8.25 µM
CCCCCCc1cc2cc(C(=O)Nc3cccc(OC)c3)c(=O)oc2cc1O | 13.4 µM
CCCNC(=O)c1nnsc1S(=O)c1ccc(Cl)cc1 (configuration not stated) | 1.16 µM
COc1ccc(Br)cc1C(=O)Nc1cc(C)cc(C)c1 | 6.69 µM
COC(=O)c1ccc(C2C(Oc3ccc(OC)cc3)C(=O)N2CCc2ccc(F)cc2)cc1 (configuration not stated) | 6.79 µM
O=C(Nc1ccc(F)cc1)Nc1cc(OCC(F)(F)F)cc(OCC(F)(F)F)c1 | 5.78 µM
c1ccc(Cn2nnc3c(N4CCc5ccccc54)ncnc32)cc1 | 6.35 µM

Reference: PubChem BioAssay AID977606 (Broad Institute, 2014)
